# Test results: ChEMBL document CHEMBL1150654, “New marine diterpenoids from the Okinawan soft coral Clavularia koellikeri” (J Nat Prod, 2002)
# Experiments:
# Assay type in all cases: functional, cell-based
# ACHN = assay: Cytotoxicity against human ACHN cells after 48 hrs by sulforhodamine B assay
# HT-29 = assay: Cytotoxicity against human HT-29 cells after 48 hrs by sulforhodamine B assay; details: HT-29, 48 h
# PC-3 = assay: Cytotoxicity against human PC3 cells after 48 hrs by sulforhodamine B assay; details: PC-3, 48 h
# [1] = Cytotoxicity against human HBC5 cells after 48 hrs by sulforhodamine B assay; details: HBC5, 48 h
# [2] = Cytotoxicity against human BSY1 cells after 48 hrs by sulforhodamine B assay; details: BSY-1, 48 h
# MKN-7 = assay: Cytotoxicity against human MKN7 cells after 48 hrs by sulforhodamine B assay; details: MKN-7, 48 h
# MKN-74 = assay: Cytotoxicity against human MKN74 cells after 48 hrs by sulforhodamine B assay; details: MKN-74, 48 h
# SK-OV-3 = assay: Cytotoxicity against human SKOV3 cells after 48 hrs by sulforhodamine B assay; details: SK-OV-3, 48 h
# NCI-H226 = assay: Cytotoxicity against human NCI-H226 cells after 48 hrs by sulforhodamine B assay; details: NCI-H226, 48 h
# OVCAR-5 = assay: Cytotoxicity against human OVCAR5 cells after 48 hrs by sulforhodamine B assay; details: OVCAR-5, 48 h
# OVCAR-8 = assay: Cytotoxicity against human OVCAR8 cells after 48 hrs by sulforhodamine B assay; details: OVCAR-8, 48 h
# DU-145 = assay: Cytotoxicity against human DU145 cells after 48 hrs by sulforhodamine B assay; details: DU-145, 48 h
# NCI-H23 = assay: Cytotoxicity against human NCI-H23 cells after 48 hrs by sulforhodamine B assay; details: NCI-H23, 48 h
# HCT-116 = assay: Cytotoxicity against human HCT116 cells after 48 hrs by sulforhodamine B assay; details: HCT-116, 48 h
# U-251 = assay: Cytotoxicity against human U251 cells after 48 hrs by sulforhodamine B assay; details: U-251, 48 h
# SNB-75 = assay: Cytotoxicity against human SNB75 cells after 48 hrs by sulforhodamine B assay; details: SNB-75, 48 h
# [3] = Cytotoxicity against human HBC4 cells after 48 hrs by sulforhodamine B assay; details: HBC4, 48 h
# DMS-114 = assay: Cytotoxicity against human DMS114 cells after 48 hrs by sulforhodamine B assay; details: DMS-114, 48 h
# SF-539 = assay: Cytotoxicity against human SF539 cells after 48 hrs by sulforhodamine B assay; details: SF-539, 48 h
# SNB-78 = assay: Cytotoxicity against human SNB78 cells after 48 hrs by sulforhodamine B assay; details: SNB-78, 48 h
# SF-268 = assay: Cytotoxicity against human SF268 cells after 48 hrs by sulforhodamine B assay; details: SF-268, 48 h
# St-4 = assay: Cytotoxicity against human St-4 cells after 48 hrs by sulforhodamine B assay; details: St-4, 48 h
# MKN-28 = assay: Cytotoxicity against human MKN28 cells after 48 hrs by sulforhodamine B assay; details: MKN-28, 48 h
# LOX IMVI = assay: Cytotoxicity against human LOXIMVI cells after 48 hrs by sulforhodamine B assay
# NCI-H522 = assay: Cytotoxicity against human NCI-H522 cells after 48 hrs by sulforhodamine B assay; details: NCI-H522, 48 h
# A549 = assay: Cytotoxicity against human A549 cells after 48 hrs by sulforhodamine B assay; details: A549, 48 h
# OVCAR-3 = assay: Cytotoxicity against human OVCAR-3 cells after 48 hrs by sulforhodamine B assay; details: OVCAR-3, 48 h
# MDA-MB-231 = assay: Cytotoxicity against human MDA-MB-231 cells after 48 hrs by sulforhodamine B assay; details: MDA-MB-231, 48 h
# DMS-273 = assay: Cytotoxicity against human DMS273 cells after 48 hrs by sulforhodamine B assay; details: DMS-273, 48 h
# HCC 2998 = assay: Cytotoxicity against human HCC2998 cells after 48 hrs by sulforhodamine B assay; details: HCC 2998, 48 h
# [4] = Cytotoxicity against human MKN1 cells after 48 hrs by sulforhodamine B assay; details: MKN-1, 48 h
# [5] = Cytotoxicity against human RXF631L cells after 48 hrs by sulforhodamine B assay; details: RXF 631, 48 h
# MCF7 = assay: Cytotoxicity against human MCF7 cells after 48 hrs by sulforhodamine B assay; details: MCF7, 48 h
# HCT-15 = assay: Cytotoxicity against human HCT15 cells after 48 hrs by sulforhodamine B assay; details: HCT-15, 48 h
# MKN-45 = assay: Cytotoxicity against human MKN45 cells after 48 hrs by sulforhodamine B assay; details: MKN-45, 48 h
# OVCAR-4 = assay: Cytotoxicity against human OVCAR4 cells after 48 hrs by sulforhodamine B assay; details: OVCAR-4, 48 h
# NCI-H460 = assay: Cytotoxicity against human NCI-H460 cells after 48 hrs by sulforhodamine B assay; details: NCI-H460, 48 h
# SF-295 = assay: Cytotoxicity against human SF295 cells after 48 hrs by sulforhodamine B assay; details: SF-295, 48 h
# KM12 = assay: Cytotoxicity against human KM12 cells after 48 hrs by sulforhodamine B assay; details: KM12, 48 h
smiles,measurement,setting,value
C=C1C(=O)O[C@H]2/C=C(\C)CC/C=C(\C)CC/C=C(\C)CC[C@H]12,IC50,ACHN,3 µg/mL
same,IC50,HT-29,1.47 µg/mL
same,IC50,PC-3,1.11 µg/mL
same,IC50,[1],2.13 µg/mL
same,IC50,[2],1.35 µg/mL
same,IC50,MKN-7,0.96 µg/mL
same,IC50,MKN-74,0.81 µg/mL
same,IC50,SK-OV-3,6.6 µg/mL
same,IC50,NCI-H226,1.14 µg/mL
same,IC50,OVCAR-5,2.31 µg/mL
same,IC50,OVCAR-8,0.93 µg/mL
same,IC50,DU-145,3.3 µg/mL
same,IC50,NCI-H23,3.6 µg/mL
same,IC50,HCT-116,1.17 µg/mL
same,IC50,U-251,4.2 µg/mL
same,IC50,SNB-75,3.3 µg/mL
same,IC50,[3],1.62 µg/mL
same,IC50,DMS-114,3.6 µg/mL
same,IC50,SF-539,1.56 µg/mL
same,IC50,SNB-78,1.59 µg/mL
same,IC50,SF-268,3 µg/mL
same,IC50,St-4,3.9 µg/mL
same,IC50,MKN-28,0.96 µg/mL
same,IC50,LOX IMVI,0.72 µg/mL
same,IC50,NCI-H522,0.66 µg/mL
same,IC50,A549,1.26 µg/mL
same,IC50,OVCAR-3,1.14 µg/mL
same,IC50,MDA-MB-231,4.5 µg/mL
same,IC50,DMS-273,1.11 µg/mL
same,IC50,HCC 2998,1.29 µg/mL
same,IC50,[4],1.2 µg/mL
same,IC50,[5],4.8 µg/mL
same,IC50,MCF7,0.9 µg/mL
same,IC50,HCT-15,2.01 µg/mL
same,IC50,MKN-45,3 µg/mL
same,IC50,OVCAR-4,2.25 µg/mL
same,IC50,NCI-H460,3.3 µg/mL
same,IC50,SF-295,3.9 µg/mL
same,IC50,KM12,1.32 µg/mL
